From patent US6479466B1, “Compositions for treating viral infections, and methods therefor” (University of Maryland, priority 1999, dated 2002) come the findings set out here.

For assay [1], the system named is HTLV-IIIB. As to the kind of experiment: p24 antigen production in PHA-activated PBMCs infected with HTLV-IIIB. Format: cell-based, HIV-1. The following applies: for inhibition at 10 µM / IC90: Human immunodeficiency virus 1, IIIB, PBMC; for IC90: read-out: IC90 (concentration of nucleoside analog that reduced the p24 antigen value of the untreated control by 90%). An excerpt:
The antiviral activities of RV alone and in combination with nucleoside analogs were investigated in PHA-stimulated PBMCs from seronegative donors. RV, ddC, ddI, and AZT were purchased from Sigma (St. Louis, Mo.). The HIV-1 T-cell line adapted isolate HTLV-IIIB was obtained from Dr. Gallo, at the National Institutes of Health AIDS Research and Reference Reagent Program (Catalog #398, Rockville, Md.). Primary strains of HIV-1 were isolated by coculturing 10^7 patient PBMC with an equal number of PHA-stimulated PBMC from a normal donor. Titration of stocks and MT-2 phenotype determination were carried out as described (ACTG Virology Manual, NIH Pub No. 94 3828, 1994). The SI phenotype was determined by assessing viral growth and syncytia formation in the MT-2 cell line obtained from Dr. Richman at the National Institutes of Health AIDS Research and Reference Reagent Program (Catalog #237, Rockville, Md.).
Primary PBMCs were separated from whole blood of HIV seronegative donors by density centrifugation over Ficoll-Hypaque (Sigma). The culture medium consisted of RPMI supplemented with 10% fetal bovine serum (FBS), 2 mM glutamine and penicillin/streptomycin (Gibco, Grand Island, N.Y.).
For infection studies involving PBMCs, cells were stimulated with 2.5 or 10 μg/ml phytohemagglutinin (PHA; Boehringer Mannheim, Indianapolis, Ind.) for 3 days. Stimulated PBMCs were infected by incubation with virus at a multiplicity of infection of 1000 TCID50/10^6 PBMC for 2 hours. PBMCs were then washed three times with PBS and cultured in 5% CO2 at 37° C., in RPMI/10% FBS supplemented with 10 units/ml IL-2 (Boehringer Mannheim) and drugs as appropriate. PBMCs were seeded in 96-well flat-bottom plates at a density of 2×10^5 PBMCs/200 μl. Following 3 days of culture half of the medium was replaced with fresh medium containing IL-2 and drugs. After 7 days of culture, HIV-1 p24 antigen production in the culture supernatant was assayed by ELISA (Coulter, Hialeah, Fla.). The concentration of nucleoside analog, alone and in combination with resveratrol, that reduced the p24 antigen value of the untreated control by 90% (IC90) was calculated by using nonparametric regression analysis. The analysis used the median-effect equation, Fa=1/[1+(Dm/D)]^m, where D is the dose, Fa is the fraction affected, and Dm is the dose required to produce the median effect.
Cells were infected with the T-cell tropic isolate HTLV-IIIB for 2 hours, and then cultured in varying concentrations of RV with or without nucleoside analogs. Virus replication was measured by p24 antigen production by ELISA using a standard commercial kit in the culture supernatants on days 7 and 10 after infection.
Activated PBMCs infected with HTLV-IIIB were cultured in the presence of ddI plus HU (100 μM) or RV (5 and 10 μM). […] Virus production in the presence of the different drug concentrations was evaluated on day 7 after infection.

Assay [2] deals with HTLV-IIIB. As to the kind of experiment: p24 antigen in infected resting T-lymphocytes exposed to drugs for 6 days before PHA activation. The assay is classed as cell-based, HIV-1. Here is the method:
The effect of RV and nucleoside analogues in infected resting T-lymphocytes was evaluated in the present example. Purified resting cells were used. Absence of activated lymphocytes in the preparation was determined by incubation of the cells in the presence of a monoclonal antibody directed against the low affinity IL-2 receptor CD25 (Pharmingen, San Diego, Calif.), and subsequent analysis by flow cytometry. […] Cells were infected with HTLV-IIIB at a multiplicity of infection of 10^4 TCID50/10^6 cells for 3 hours. A high multiplicity of infection (m.o.i.) was used because of a reported short half life of HIV-1 unintegrated DNA in infected resting lymphocytes. Infected cells were washed 3 times with PBS to remove virus excess and resuspended in 10% FBS RPMI medium supplemented with drugs. To ensure that any antiviral activity exerted by the drugs occurred during the resting state, drugs were removed six days after infection by washing with PBS 3 times, and cells were activated by culturing in the presence of PHA for 2 days. Cells were then cultured in IL-2 medium without drugs, and supernatants were monitored for the presence of p24 antigen. Cultures were maintained for 20 days.
Purified resting T-lymphocytes from a seronegative donor were infected with HTLV-IIIB at the high multiplicity of infection and cultured in the presence of 5 or 10 μM RV plus ddI (0, 0.25, 0.5 μM), ddC (0, 0.1 μM) or AZT (0, 4 μM) for 6 days. Concentrations used for ddC and AZT correspond to the highest, nontoxic concentration attainable in plasma of treated individuals. […] On day 6 after infection, drugs were washed away and cells were activated with PHA. The extent of viral replication was evaluated on day 6 (prior to PHA activation) and days 14 and 20 after infection. On day 6 very low amounts of p24 antigen could be detected under every condition tested, likely representing residual virus from the infecting inoculum. […] No toxicity was found by the MTT assay in uninfected culture controls treated with 5 μM RV and 0.5 μM ddI for 20 days under the same conditions.

Read-outs that look alike come from different tables or passages of the source. Some results are limits rather than exact numbers.

Consider `Oc1ccc(/C=C/c2cc(O)cc(O)c2)cc1` [RV, trans-3, 4′, 5-trihydroxystilbene], for which the inhibition at 10 µM in assay [1] (168 h, 10 μM RV combined with 0.5 μM ddI, day 7, read-out: inhibition of virus replication) was more than 99%; in assay [1] (168 h, 10 μM RV in combination with 0.25 μM ddI, day 7, read-out: inhibition of HIV-1 replication), 94%; in assay [1] (RV 10 μM alone, read-out: inhibition of viral replication) it was approximately 30%. In assay [1] (RV 5 μM alone), the “reduction of virus production” value is listed as “approximately 10%”. In addition, the “virus production on days 14 and 20 following PHA activation” value in assay [2] (RV alone (5 or 10 μM)) is reported as “considerable virus production”.

On to `OC[C@@H]1CC[C@H](n2cnc3c(O)ncnc32)O1` [ddI, 2′,3′-dideoxyinosine], for which the IC90 in assay [1] (168 h, in combination with 5 μM RV, day 7) was determined as 1.3 µM; in assay [1] (168 h, nucleoside analog alone, day 7), 7.5 µM. Further, the “increase in antiviral activity” value in assay [1] (addition of 10 μM RV to 2 μM ddI) is reported as 200 fold. In addition, the “reduction of IC90 value” came to 5.7 fold in assay [1] (in combination with 5 μM RV) and 17.8 fold in assay [1] (in the presence of 10 μM RV). Also, the virus production result in assay [2] (ddI 1 μM, previous studies under these conditions) is listed as “completely suppress virus production”. In addition, in assay [2] (ddI by itself (0.25, 0.5 μM)), the “viral replication after PHA activation” value was “did not suppress viral replication”.

What is called inhibition is the change of the read-out against control, counted positive when it falls.
